{"source": "patent US20240208950A1", "about": "“COMPOSITIONS AND METHODS FOR TREATMENT OF CERVICAL AND OVARIAN CANCER” (SOUTH DAKOTA BOARD OF REGENTS, priority 2021, published 2024)", "format_in_all_cases": "cell-based, human", "key": {"[1]": {"test_system": "β-catenin in SiHa cells", "assay": "β-catenin degradation with cyclohexamide (western blot, pulse chase), SiHa", "settings": "with cyclohexamide (CHX: 50 mg), ORM-Br", "experimental": "A western blot analysis was conducted to determine the effect of ORM-Br on β-catenin degradation. […] Protein lysates were prepared and subjected to western blot analysis to ascertain the levels of protein of β-catenin in cyclohexamide-treated cells (FIG. 3A) and in ORM-Br and cyclohexamide-treated cells (FIG. 3B)."}, "[2]": {"test_system": "CaSki cells", "assay": "Apoptosis analysis by Annexin V staining, CaSki", "settings": "10 μM, 24 hours", "experimental": "The apoptosis inducing effect of Br-ORM on cervical cells was analyzed by Annexin V-FLUOS staining kit (Roche Diagnostic Corp. Indianapolis, IN, USA). The procedure was followed as described in the vendor's protocol. Briefly, 60% confluent cervical cancer cells (CaSki and SiHa) were treated with Br-ORM (10, 15, and 20 μM) and kept in a CO2 incubator at 37° C. for 24 hours. Control group cells were treated with DMSO as the vehicle. Cells were washed with PBS (1×) and kept in Annexin-V solution for 20 minutes. Images were captured in bright and green field by fluorescent microscope.\n(§1) It was observed that Br-ORM exerts potent growth inhibitory effects, so the effect of Br-ORM on apoptosis induction was further examined. Cervical cancer cells were treated with Br-ORM (10 μM) for 24 hours and the apoptosis inducing effect of Br-ORM was analyzed by Annexin V staining and Western blot analysis for cleavage in PARP protein."}, "[3]": {"test_system": "cleaved PARP in CaSki cells", "assay": "Western blot for cleavage of PARP, CaSki", "settings": "24 hours", "experimental": "The effect of Br-ORM on protein expression in cervical cancer cells were determined by Western blot analysis by using specific antibodies.\nas §1\nFIG. 13. Br-ORM decreases proliferation and colony formation of cervical cancer cells. FIG. 13A. Effect of Br-ORM on cell viability of CaSki cells (i) and SiHa cells (ii). Briefly, cervical cancer cells were seeded (2500) in each well of 96-well plate and after overnight incubation; cells were treated with indicated concentrations of Br-ORM for 24 hours. Cell viability was assessed by MTS assay. […] Bar graphs indicating quantification of colony formation in CaSki (i), and SiHa (ii) cells of cervical cancer with respect to vehicle control. […] Briefly, cervical cancer cells were treated with Br-ORM (10 μM) for 24 hours and the apoptosis inducing effect of Br-ORM was analyzed by Annexin V staining. […] The equal loading of protein in each lane was determined by probing the blots with β-actin antibody (FIG. 13F). […] Br-ORM arrests cell cycle in G1/S phase as determined by flow cytometry. […]"}, "[4]": {"test_system": "HPV16 E6 and E7 transcripts in CaSki cells", "assay": "qPCR of HPV E6 and HPV E7 transcripts, CaSki", "settings": "18 hours", "experimental": "(§2) RNA from cervical cancer cells was isolated using Qiagen kit and quantified using NanoDrop instrument 2000 (Thermo Scientific, Waltham, MA, USA). To analyze the expression of miR-200a in control and Br-ORM treated cells, 100 ng total RNA was reverse transcribed into cDNA using specific primers designed for miRNA analysis (Applied Biosystems, Foster City, CA, USA). The expression of this miRNAs was determined by qRT-PCR using the Taqman PCR master mixture and specific primers designed for detection of mature miRNAs (Applied Biosystems). The expression of miRNA was normalized with the expression of endogenous control, RNU6B.\nHPV infections are associated with a majority of cervical cancer cases. The effect of Br-ORM on the expression of HPV E6 and HPV E7 oncogenes in CaSki and SiHa cells was investigated. […] Br-ORM repressed both transcription and translation of E6 and E7 oncogene in cervical cancer cells.\n(§3) FIG. 16. Effect of Br-ORM on HPV oncoproteins and tumor suppressor miR-200 in cervical cancer cells. […] Increase expression of tumor suppressor miR200a in cervical cancer cells treated with BR-ORM for 24 hours in comparison to non-treated controls was determined through real time PCR (FIG. 16A(v)-(vii)). […]"}, "[5]": {"test_system": "miR-200a in cervical cancer cells", "assay": "qRT-PCR of miR-200a", "settings": "qPCR, 24 hours", "experimental": "as §2\nModulations of microRNAs are involved in cervical cancer development, progression and metastasis. It is reported that expression of β-catenin is directly regulated by miR-200a. Br-ORM targets β-catenin signaling, therefore, to further understand the underlying mechanisms, the expression of miR-200a following the Br-ORM treatment was evaluated.\nas §3"}}}
{"smiles": "COc1ccc2c(c1)OC(C)(C)C(c1ccc(Br)cc1)C2c1ccc(OCCN2CCCC2)cc1", "note": "(centres unmarked) [ORM-Br]", "values": [{"measurement": "protein levels of β-catenin relative to cyclohexamide treatment", "setting": "[1]", "result": "significant decrease in protein levels of β-catenin"}, {"measurement": "apoptosis induction (Annexin V staining)", "setting": "[2]", "result": "induced apoptosis"}, {"measurement": "protein levels of cleaved PARP", "setting": "[3]", "result": "dose dependently enhanced the protein levels of cleaved PARP"}, {"measurement": "HPV16 E6 and E7 transcripts", "setting": "[4]", "result": "significant downregulation"}, {"measurement": "expression of miR-200a", "setting": "[5]", "result": "significant (P<0.05) increase"}]}
